Laboratory results as given in paper PMC5462828 (Scientific Reports, 2017).
Like-named read-outs stand apart in the source and are kept apart here.

Assays:
RXFP1 [1] = molecular target: T1, RXFP1 (Homo sapiens, UniProt Q9HBX9); experiment: cGMP accumulation in human primary vascular cells and cardiac fibroblasts; assay type: cell-based; conditions: for cGMP accumulation, maximum: DEA 10 μM, 5 min
T1 sequence (Q9HBX9 1-757): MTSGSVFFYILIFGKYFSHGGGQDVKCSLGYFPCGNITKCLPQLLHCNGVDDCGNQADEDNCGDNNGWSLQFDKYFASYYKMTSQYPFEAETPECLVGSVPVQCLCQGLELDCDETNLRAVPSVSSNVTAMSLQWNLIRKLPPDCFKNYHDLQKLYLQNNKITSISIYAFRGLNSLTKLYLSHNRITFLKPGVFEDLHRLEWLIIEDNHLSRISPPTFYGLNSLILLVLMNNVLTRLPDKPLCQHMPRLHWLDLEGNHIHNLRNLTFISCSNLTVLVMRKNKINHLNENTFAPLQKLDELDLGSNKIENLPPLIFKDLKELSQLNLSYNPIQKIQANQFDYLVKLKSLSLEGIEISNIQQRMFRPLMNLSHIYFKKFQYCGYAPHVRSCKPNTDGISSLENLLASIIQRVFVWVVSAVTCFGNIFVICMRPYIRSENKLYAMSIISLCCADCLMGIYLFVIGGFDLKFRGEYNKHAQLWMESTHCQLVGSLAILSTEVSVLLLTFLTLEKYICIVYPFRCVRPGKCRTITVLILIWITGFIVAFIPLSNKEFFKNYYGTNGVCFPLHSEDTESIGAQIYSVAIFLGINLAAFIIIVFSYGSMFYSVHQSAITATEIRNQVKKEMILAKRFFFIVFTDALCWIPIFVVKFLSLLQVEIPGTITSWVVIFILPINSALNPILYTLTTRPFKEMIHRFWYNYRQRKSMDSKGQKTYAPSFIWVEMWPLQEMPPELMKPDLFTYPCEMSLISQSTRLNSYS
Description: (§1) cAMP and cGMP accumulation was determined as previously described, [16]. Briefly, HEK293 cells were plated in 96-well plates (5 × 10^4 cells/well) and human primary cells were plated into 24-well plates (1 × 10^5 cells/well) and grown overnight to achieve a confluent monolayer. Prior to stimulation, HEK cells were serum-starved in DMEM containing 0.5% FBS v/v and primary cells were serum-starved in M199 medium for 4–6 hours. Where appropriate, cells were pre-incubated with mSIRK (5 μM, 30 min), mSIRK control peptide L9A (5 μM, 30 min), gallein (100 μM, 30 min), Wortmannin (100 nM, 30 min), NF023 (10 μM, 30 min) and NF449 (10 μM, 30 min). Levels of cAMP and cGMP were detected according to the manufacturer’s instructions (Perkin-Elmer, Australia).

RXFP1 [2] = experiment: as above; assay type: cell-based; conditions: HUAEC, cells that do not express cell surface RXFP1; 30 min
Description: as §1

[3] = tested on: ML290-mediated cGMP accumulation; experiment: Effect of signalling pathway inhibitors on ML290-mediated cGMP accumulation in human primary vascular cells; assay type: cell-based; conditions: for Emax: Homo sapiens, read-out: ML290-mediated cGMP accumulation (maximum response), ML290 alone
Description: cAMP and cGMP accumulation was determined as previously described, [16]. Briefly, HEK293 cells were plated in 96-well plates (5 × 10^4 cells/well) and human primary cells were plated into 24-well plates (1 × 10^5 cells/well) and grown overnight to achieve a confluent monolayer. Prior to stimulation, HEK cells were serum-starved in DMEM containing 0.5% FBS v/v and primary cells were serum-starved in M199 medium for 4–6 hours. […] Levels of cAMP and cGMP were detected according to the manufacturer’s instructions (Perkin-Elmer, Australia).

AVPR1B = tested on: AVPR1B; parameters: method as in PMID 23764525; conditions: cited from earlier work
[4] = parameters: method as in PMID 23764525; conditions: cited from earlier work
THP-1 cells = tested on: THP-1 cells; parameters: method as in PMID 23764525; conditions: cited from earlier work
human RXFP1 = conditions: cited from earlier work
mouse RXFP1 = conditions: cited from earlier work
RXFP1 [5] = molecular target: T1, RXFP1; experiment: p38MAPK phosphorylation (Surefire) in HEK-RXFP1 cells; assay type: cell-based; parameters: expressed in transfected cells; host or cells: HEK293T / HEK293 cells stably expressing RXFP1 (HEK-RXFP1)
Description: p-ERK1/2, p-p38MAPK and p-JNK1/2 was measured using the Surefire ERK, p38 and JNK kits (TGR BioSciences, Australia) as described previously, [16]. Briefly, HEK-RXFP1 cells were plated into 96-well plates (5 × 10^4 cells/well) and primary cells grown in 24-well plates (1 × 10^5 cells/well) overnight to achieve a confluent monolayer. Prior to stimulation, HEK293 cells were serum-starved with DMEM containing 0.5% (v/v) FBS and primary cells in M199 medium for 4–6 hours. […] Levels of p-ERK1/2, p-p38MAPK and p-JNK1/2/3 were detected as per manufacturer’s instructions (Perkin-Elmer, Australia).

RXFP1 [6] = molecular target: T1, RXFP1; experiment: cAMP accumulation in HEK-RXFP1 cells; assay type: cell-based; parameters: expressed in transfected cells; host or cells: HEK293T / HEK293 cells stably expressing RXFP1 (HEK-RXFP1); conditions: read-out: cAMP accumulation efficacy (Emax)
Description: as §1

CC(C)Oc1ccccc1C(=O)Nc1ccccc1C(=O)Nc1cccc(S(=O)(=O)C(F)(F)F)c1 [ML290, 2-Isopropoxy-N-(2-(3-(trifluoromethylsulfonyl)phenylcarbamoyl)phenyl) benzamide]
cGMP accumulation, maximum (RXFP1 [1]; HCAEC, 30 min): 40.6 ± 5.6 % of the DEA response
cGMP accumulation, maximum (RXFP1 [1]; HUASMC, 30 min): 21.0 ± 4.1 % of the DEA response
Emax (RXFP1 [1]; HUVEC, read-out: cGMP accumulation efficacy (Emax), HUVEC, 30 min): 23.5%
cGMP accumulation, maximum (RXFP1 [1]; HUVEC, 30 min): 23.5 ± 4.4 % of the DEA response
cGMP accumulation, maximum (RXFP1 [1]; HUVSMC, 30 min): 11.0 ± 3.4 % of the DEA response
Emax (RXFP1 [1]; read-out: cGMP accumulation efficacy (Emax), HCAEC, 30 min): 40.6%
Emax (RXFP1 [1]; read-out: cGMP accumulation efficacy (Emax), HCF): 45.3%
Emax (RXFP1 [1]; read-out: cGMP accumulation efficacy (Emax), HUASMC, 30 min): 21%
Emax (RXFP1 [1]; read-out: cGMP accumulation efficacy (Emax), HUVSMC, 30 min): 11%
cGMP accumulation (RXFP1 [2]): no effect
ML290-mediated cGMP accumulation, ML290 alone ([3]; HUASMCs, control of NF449 and mSIRK experiments): 41.9 ± 4.8%
ML290-mediated cGMP accumulation, ML290 alone ([3]; HUASMCs, control of gallein and Wortmannin experiments): 32.1 ± 4.2%
ML290-mediated cGMP accumulation, ML290 alone ([3]; HUVSMCs, control of NF449 and mSIRK experiments): 31.4 ± 4.8%
ML290-mediated cGMP accumulation, ML290 alone ([3]; HUVSMCs, control of gallein and Wortmannin experiments): 30.4 ± 3.2%
Emax ([3]; HUVEC): 39.5 ± 4.8%
Emax [3]: 41 ± 4.5%
action at AVPR1B (AVPR1B): little or no action
cytotoxicity [4]: little cytotoxicity
VEGF expression (THP-1 cells): increased VEGF expression
agonist action at human RXFP1 (human RXFP1): activates
action at mouse RXFP1 (mouse RXFP1): antagonist actions
agonist action at the mouse orthologue of RXFP1 (mouse RXFP1): no agonist actions
Emax (RXFP1 [5]; 15 min, read-out: p-p38MAPK efficacy (Emax) (converted)): 16.9%
p38MAPK phosphorylation, time course (RXFP1 [5]; up to 45 min, H2 relaxin 100 nM, ML290 100 nM or 10 μM): increased p38MAPK phosphorylation
Emax (RXFP1 [6]): 113%
